Test results: publication PMC3377608, “The IkappaB Kinase Family Phosphorylates the Parkinson’s Disease Kinase LRRK2 at Ser935 and Ser910 during Toll-Like Receptor Signaling” (PLoS ONE, 2012)

Target: T1, TAK1 (Homo sapiens, UniProt O43318)
T1 construct: gene MAP3K7
T1 sequence (O43318 1-303): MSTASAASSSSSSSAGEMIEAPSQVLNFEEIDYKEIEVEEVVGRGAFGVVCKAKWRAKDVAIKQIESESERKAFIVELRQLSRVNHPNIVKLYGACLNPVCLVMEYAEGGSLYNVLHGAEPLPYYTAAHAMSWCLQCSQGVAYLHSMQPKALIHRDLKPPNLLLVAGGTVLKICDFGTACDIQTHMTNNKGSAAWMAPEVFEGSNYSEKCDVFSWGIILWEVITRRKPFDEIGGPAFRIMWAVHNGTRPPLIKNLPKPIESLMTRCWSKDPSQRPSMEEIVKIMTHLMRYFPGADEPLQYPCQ
T1 sequence (Q15750 437-504 partner): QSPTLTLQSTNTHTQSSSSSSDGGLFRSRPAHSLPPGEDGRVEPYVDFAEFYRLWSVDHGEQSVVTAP
Experiment: in vitro kinase inhibition (IC50); selectivity profiled by KiNativ, Ambit and radioactive filter binding panels
Format: biochemical

- IC50: 4 nM
SMILES: CCN1CCN(Cc2ccc(NC(=O)c3ccc(C)c(Oc4ccnc5[nH]ccc45)c3)cc2C(F)(F)F)CC1 [NG25]
